Assay results from patent US20250034191A1, “LIGININ FLOWER PRODUCTION AND USES THEREOF” (SILICYCLE INC., priority 2021, published 2025).
Where “and” joins values, the source holds several entries; their conditions need not be identical. Equal entries are not always repeated.

Tests used:
secreted IL6 = assay: Interleukin 6 (IL6) secretions in coculture; type: cell-based, human
Excerpt: To assess the effect of the test element on inflammation, we assayed extracellular concentrations of secreted IL6. The results were normalized by the number of fibroblasts and represented as a percentage of the solvent condition DMSO (FIG. 13).

[1] = system: reconstructed artificial human skin model (normal human epidermal keratinocytes); assay: In vitro skin irritation, reconstructed human epidermis (OECD 439), MTT; type: cell-based; conditions: 42 h treatment, 42 hours incubation
Protocol: The purpose of this test is to evaluate if the tested material is, or is not a skin irritant, according to the method described in OECD 439. This method uses the human artificial skin model (EPISKIN™, EpiDerm™, Episkin™ RHE) to assess the skin irritation of chemical substances, mixtures and to properly label them to this respect if applicable.
The test is based on the evaluation of cell survival after the exposure to the substance through MTT assay and by comparison with epidermis treated with phosphate buffer only (negative control). The MTT method is a colorimetric assay that allows to determine the percentage of cells alive within an in vitro cultured tissue. This assay is based on the ability of the mitochondrial succinate dehydrogenase enzyme to metabolize the nitro-blue tetrazolium salt, giving a colored compound that can be measured by spectrophotometer reading. […]
Epidermis units are treated with 1 mg/ml MTT solution (3-[4,5-dimethylthiazol-2-yl]-2,5-diphenyl tetrazolium bromide) for 3 h at 37° C. […] 2 aliquots of every sample are transferred to a 96 well plate for the reading. The absorbance is read at the wavelength of 570 nm with a colorimeter (Tecan model Infinite 200 PRO) equipped with a microplate reader.

NADPH-oxidase complex = conditions: Zhang, Yi et al., American Journal of Hypertension, 2005; cited from earlier work
S. typhimurium TA 98 = assay: Ames test (OECD 471), plate incorporation assay; type: cell-based, Salmonella typhimurium; conditions: TA 98 with S9, positive control, 3.0 μg/plate (Table 3)
Excerpt: The purpose of the test is to investigate the possible genotoxic activity exerted by the tested substance in bacterial strains of Salmonella typhimurium, with and without metabolic activation with S9.
The Ames test allows for detecting the induction of point mutations in nucleotide bases, such as deletions, insertions, transversions and frameshift mutations by using modified Salmonella typhimurium strains. These strains carry a defective gene in the histidine operon making them auxotroph for this amino acid (mutants His-which require histidine in the culture medium for growth). The method guiding principle is based on the reverse mutation phenomenon by which bacteria exposed to a mutagenic substance may change back and become again prototroph concerning histidine (His+). The bacterial cells in growth phase are exposed to different concentrations of the test agent and mutagenic activity is determined by the capability of the test substance to induce a significant increase in the number of revertant (histidine-independent mutant, His+) in comparison to the spontaneous reversions occurring in the control cultures.
Some chemical agents are not directly mutagen but become so by following transformation and metabolic activation occurring in the organism by liver enzyme activity. To study this genotoxic effect, rat liver microsomal fraction (S9) has been added. The employ of S9 allows identifying substances that act as indirect mutagen.
In this assay, 5 bacterial strains TA 1535, TA100, TA 102, TA 1537 and TA98 have been used and their characteristics are illustrated in Table 3. Each tester strains contains a different type of mutation in the histidine operon. TA 1535 and TA 100 strains are specific testers for mutagens causing base substitutions. The TA 102 strain is used to detect mutagens that require an intact excision repair system. […] Furthermore, the TA 102 strain contains the multicopy plasmid, pAQ1, which confers tetracycline resistance. The frameshift tester strains used are TA 1537 and TA 98. TA 98, like TA 100, is ampicillin resistant. All S. typhimurium strains carry, along with the defect in the histidine gene (His−), a deep rough (rfa) character, a mutation that causes partial loss of the lipopolysaccharide barrier that coats the surface of the bacteria and increases permeability to large molecules. […] For technical reason, the deletion excising the uvrB gene extends through the bio gene and, consequently, these bacteria also require biotin for growth.
The study was performed using the plate incorporation assay with and without S9 mix. S9 is composed by Aroclor 1254 induced rat liver supplemented with glucose-6-phosphate and NADP (Moltox®). The experiment was performed in duplicate Petri dishes containing basal medium and a further layer of medium containing histidine+biotin, the Salmonella typhimurium suspension, the sample to be tested at different concentrations and, if the case of metabolic activation, a 5% S9 mix. Dishes were incubated for 48 hours at 37° C. When the incubation time was over, a basal bacterial growth was achieved limited by the amount of histidine in the medium and in add the growth of revertant colonies (his+). In particular, the basic number of revertant colonies is steady, different for each strain, due to the spontaneous mutation rate of the bacterial strain. If an increase in the number of revertant colonies is observed, this is proportional to the tested sample concentration and to its mutagen capability. […]

## C[C@@H]1C[C@H]2[C@@H]3CCC4=CC(=O)C=C[C@]4(C)[C@@]3(F)[C@@H](O)C[C@]2(C)[C@@]1(O)C(=O)CO [Dexamethasone]
Secreted IL6; D3, anti-inflammatory reference
  IL6 secretions, normalized by number of fibroblasts: 25%
Secreted IL6; D6, compared to the coculture control
  IL6 secretions, normalized by number of fibroblasts: 85%

## CCCCCCCCCCCCOS(=O)(=O)[O-].[Na+] [SLS 5%]
[1]
  Classification: I (Irritant)
[1]; tested undiluted
  % mean cell viability (ds): 0.93%

## COc1cc(C(C)=O)ccc1O [Apocynin, apocynin]
NADPH-oxidase complex
  inhibition of the NADPH-oxidase complex: effective inhibitor

## Nc1ccc2cc3ccccc3cc2c1 [2AAn, 2-aminoanthracene]
S. typhimurium TA 98
  Statistically significant vs solvent control (p < 0.05): yes
  revertant, mean: 3320 UFC/plate
  revertant, single replicates: 3353 UFC/plate and 3291 UFC/plate and 3316 UFC/plate
